According to PubChem BioAssay (NCI):
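Five compound concentrations were applied to cells in 96-well plates for 48 hours; endpoints were derived by simple linear interpolation of the resulting dose-response curve. TGI denotes the concentration required for complete inhibition of growth.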

Key:
Assay in all cases: NCI-60 cell line screen, 48 h
[1] = system: SK-MEL-2 melanoma
[2] = system: NCI-H460 lung
[3] = system: BT-549 breast
[4] = system: OVCAR-5 ovarian
[5] = system: HL-60(TB) leukemia
[6] = system: NCI-H23 lung
[7] = system: MOLT-4 leukemia
[8] = system: SK-OV-3 ovarian
[9] = system: UACC-257 melanoma
[10] = system: TK-10 renal
[11] = system: SW-620 colon
[12] = system: MDA-N
[13] = system: SF-268 CNS
[14] = system: HCT-15 colon
[15] = system: SNB-75 CNS
[16] = system: HS 578T breast
[17] = system: SK-MEL-5 melanoma
[18] = system: HOP-92 NSCLC
[19] = system: A549 NSCLC
[20] = system: IGROV1 ovarian
[21] = system: T-47D breast
[22] = system: NCI-H522 lung
[23] = system: K-562 leukemia
[24] = system: CAKI-1 renal
[25] = system: HCT-116 colon
[26] = system: SN12C renal
[27] = system: SF-295 CNS
[28] = system: KM12 colon
[29] = system: HOP-62 NSCLC
[30] = system: RPMI-8226 leukemia
[31] = system: MDA-MB-435
[32] = system: ACHN renal
[33] = system: MALME-3M melanoma
[34] = system: PC-3 prostate
[35] = system: OVCAR-3 ovarian
[36] = system: MCF7 breast
[37] = system: U251 CNS
[38] = system: A498 renal
[39] = system: UO-31 renal
[40] = system: NCI/ADR-RES ovarian
[41] = system: HT29 colon
[42] = system: SNB-19 CNS
[43] = system: M14 melanoma
[44] = system: MDA-MB-231 breast
[45] = system: CCRF-CEM leukemia
[46] = system: COLO 205 colon
[47] = system: EKVX NSCLC
[48] = system: NCI-H226 lung
[49] = system: SR leukemia
[50] = system: 786-0 renal
[51] = system: UACC-62 melanoma
[52] = system: HCC-2998 colon
[53] = system: OVCAR-8 ovarian
[54] = system: SK-MEL-28 melanoma
[55] = system: DU-145 prostate
[56] = system: RXF 393 renal
[57] = system: SF-539 CNS
[58] = system: OVCAR-4 ovarian
[59] = system: LOX IMVI melanoma

## C=CCC(CCC(C)=O)(C(=O)OCC)C(=O)OCC
[1]
  TGI: > 100 µM
[2]
  TGI: > 100 µM
[3]
  TGI: > 100 µM
[4]
  TGI: > 100 µM
[5]
  TGI: > 100 µM
[6]
  TGI: > 100 µM
[7]
  TGI: > 100 µM
[8]
  TGI: > 100 µM
[9]
  TGI: > 100 µM
[10]
  TGI: > 100 µM
[11]
  TGI: > 100 µM
[12]
  TGI: > 100 µM
[13]
  TGI: > 100 µM
[14]
  TGI: > 100 µM
[15]
  TGI: > 100 µM
[16]
  TGI: > 100 µM
[17]
  TGI: > 100 µM
[18]
  TGI: > 100 µM
[19]
  TGI: > 100 µM
[20]
  TGI: > 100 µM
[21]
  TGI: > 100 µM
[22]
  TGI: > 100 µM
[23]
  TGI: > 100 µM
[24]
  TGI: > 100 µM
[25]
  TGI: > 100 µM
[26]
  TGI: > 100 µM
[27]
  TGI: > 100 µM
[28]
  TGI: > 100 µM
[29]
  TGI: > 100 µM
[30]
  TGI: > 100 µM
[31]
  TGI: > 100 µM
[32]
  TGI: > 100 µM
[33]
  TGI: > 100 µM
[34]
  TGI: > 100 µM
[35]
  TGI: > 100 µM
[36]
  TGI: > 100 µM
[37]
  TGI: > 100 µM
[38]
  TGI: > 100 µM
[39]
  TGI: > 100 µM
[40]
  TGI: > 100 µM
[41]
  TGI: > 100 µM
[42]
  TGI: > 100 µM
[43]
  TGI: > 100 µM
[44]
  TGI: > 100 µM
[45]
  TGI: > 100 µM
[46]
  TGI: > 100 µM
[47]
  TGI: > 100 µM
[48]
  TGI: > 100 µM
[49]
  TGI: > 100 µM
[50]
  TGI: > 100 µM
[51]
  TGI: > 100 µM
[52]
  TGI: > 100 µM
[53]
  TGI: > 100 µM
[54]
  TGI: > 100 µM
[55]
  TGI: > 100 µM
[56]
  TGI: > 100 µM
[57]
  TGI: > 100 µM
[58]
  TGI: > 100 µM

## COc1ccc(CCCCNCc2cccc(CNCCCCc3ccc(OC)cc3)c2)cc1
[1]
  TGI: 3.53 µM
[2]
  TGI: > 19.7 µM
[3]
  TGI: 3.36 µM
[4]
  TGI: 4.33 µM
[5]
  TGI: 3.98 µM
[6]
  TGI: 3.37 µM
[7]
  TGI: 6.86 µM
[8]
  TGI: 4.02 µM
[9]
  TGI: > 19.7 µM
[10]
  TGI: 5.02 µM
[11]
  TGI: 3.28 µM
[12]
  TGI: 4.25 µM
[13]
  TGI: 3.35 µM
[14]
  TGI: 3.55 µM
[15]
  TGI: 3.38 µM
[16]
  TGI: 3.27 µM
[17]
  TGI: 3.25 µM
[18]
  TGI: 2.91 µM
[19]
  TGI: 4.86 µM
[20]
  TGI: 3.32 µM
[21]
  TGI: 4.35 µM
[22]
  TGI: 3.5 µM
[24]
  TGI: 3.63 µM
[25]
  TGI: 3.88 µM
[59]
  TGI: 3.23 µM
[26]
  TGI: 3.64 µM
[27]
  TGI: 3.77 µM
[28]
  TGI: 3.69 µM
[29]
  TGI: 4.99 µM
[30]
  TGI: > 100 µM
[31]
  TGI: 3.63 µM
[32]
  TGI: 3.47 µM
[33]
  TGI: 3.6 µM
[34]
  TGI: 3.55 µM
[35]
  TGI: 3.37 µM
[36]
  TGI: 3.06 µM
[37]
  TGI: 3.71 µM
[39]
  TGI: 2.68 µM
[40]
  TGI: 3.19 µM
[41]
  TGI: 3.16 µM
[42]
  TGI: 3.29 µM
[43]
  TGI: 3.5 µM
[44]
  TGI: 3.6 µM
[45]
  TGI: 4.47 µM
[46]
  TGI: 5.22 µM
[47]
  TGI: 3.42 µM
[48]
  TGI: 2.33 µM
[49]
  TGI: > 100 µM
[50]
  TGI: 4.51 µM
[51]
  TGI: 3.55 µM
[52]
  TGI: 0.922 µM
[53]
  TGI: 3.23 µM
[54]
  TGI: 3.73 µM
[55]
  TGI: 3.54 µM
[56]
  TGI: 3.28 µM
[58]
  TGI: 3.98 µM
